Assay results as given in patent US20220152117A1, “METHODS OF PROMOTING CELLULAR MATURATION WITH AMPK ACTIVATORS” (UNIVERSITY OF WASHINGTON, priority 2019, published 2022).
“And” between values parts separate entries of the source, which are not always exact repeats. Equal values may be shown once.

Key:
hPSC-CMs = experiment: Mitochondrial oxidation of palmitate, Seahorse XF96 extracellular flux palmitate-albumin assay; format: cell-based, human; conditions: 1 mM AICAR for 2 weeks
Procedure: The Seahorse XF96 extracellular flux Analyzer™ was used to assess the fatty acid oxidation capacity of the hPSC-CMs. XF96 plates were pre-treated with fibronectin at a concentration of 1 μg/cm^2. At around 20 days after induction of differentiation, the cardiomyocytes were seeded onto the XF96 plates at a density of 30,000 cells per well (2,500/mm^2). The cells were treated with 1 mM AICAR for two weeks before the palmitate-albumin assay. An hour prior to performing this assay, culture medium was exchanged for basal media (unbuffered DMEM, Sigma D5030, supplemented with 2 mM glutamine, 1 mM pyruvate, 25 mM glucose, and 400 μM carnitine). Palmitate-albumin complexes were made following the Seahorse Bioscience protocol. Substrates were injected during the measurements to achieve two spike concentrations of palmitate-albumin at 200 μM each. The oxygen consumption rates (OCR values) were further normalized to the number of cells present in each well, quantified by staining with Hoechst 33342 (Sigma-Aldrich) as measured using fluorescence at 355 nm excitation and 460 nm emission. The highest OCR values induced by palmitate-albumin were used for statistics. Due to variations in the absolute magnitude of OCR measurements in different experiments, the relative AICAR treated/untreated control levels were used to compare and summarize independent biological replicates (N=7).

[1] = test system: hiPSC-derived cardiomyocytes; experiment: Contractile force assessment on micropost arrays; format: cell-based, human; conditions: 1 mM AICAR for one week
Procedure: Contractile force was assessed using micropost arrays, following a procedure similar to previously reported studies on cardiomyocytes^2, 31, 32. The process used to fabricate the micropost arrays is described in detail elsewhere^33, 34. The microposts (6.45 μm in height, 2.3 μm in diameter, 6 μm center-to-center post spacing) were cast onto 25 mm diameter round #1 glass coverslips (VWR®). To enable cell attachment, the tips of these microposts were stamped with 50 μg/ml of mouse laminin (Life Technologies®) via microcontact printing, while the remaining surfaces of the micropost array were fluorescently stained with BSA conjugates with Alexa Fluor 594 and blocked with 0.2% Pluronic F-127 (in PBS)^34. Twenty days following differentiation, hiPSC-derived cardiomyocytes were seeded onto the micropost arrays in Attoflour chambers at a density of approximately 500,000 cells per chamber (˜100,000 cells/cm^2), in RPMI media supplemented with 5% fetal bovine serum. After 24 hours, the medium was replaced with serum-free RPMI-B27 plus insulin, which then was exchanged every other day. Beginning two days after seeding, half of the substrates were treated with 1 mM AICAR for one week. Prior to live imaging, the media was exchanged to Tyrode's buffer. Individual cardiomyocyte twitch forces were recorded under phase light using high-speed video microscopy in a live cell chamber at 37° C., as previously described^32. Only the contractile forces of single cardiomyocytes (no junctions with adjacent cells) with obvious beating activity were assessed. Post deflections were optically measured at approximately 100 frames/sec on a Nikon Ti-E™ upright microscope with a 60× water immersion objective. A custom-written MATLAB™ code was used to compare each time frame of the video to a reference fluorescent image taken at the base of the posts. Contractile forces were subsequently calculated by multiplying the deflection of each microposts by its bending stiffness: F=kδ (1) where F is the force at a single micropost, k is the post's bending stiffness (44.54 nN/μm for this study), and δ is the horizontal distance between the centroid of the post's tip and the centroid of the post's base. The total contractile force for each cardiomyocyte was calculated as the sum of the forces at each post beneath it. The passive tension, or baseline force, was defined as the contractile force when a cardiomyocyte was at rest, i.e. in between beats. The total twitch force was defined as the difference between the peak contractile force (achieved during a twitch) and the passive tension. Additionally, the average twitch force per post was analyzed in order to normalize the total twitch force by cell area. The average twitch force per post was calculated as the total twitch force divided by the number of posts underneath a cardiomyocyte. Passive tension, total twitch force, average twitch force per post, and beating frequency were used to compare the independent biological replicates (N=2, with 16-38 cells per independent biological replicate).

Compound: NC(=O)c1ncn([C@@H]2O[C@H](CO)[C@@H](O)[C@H]2O)c1N [AICAR, 5-amino-4-imidazolecarboxamide riboside-1-β-D-ribofuranoside]
- increase in oxygen consumption rate (OCR) upon palmitate-albumin introduction (hPSC-CMs): 2.32±0.12 fold and ~2.3 fold
- beating frequency ([1]; control 0.87±0.07): 0.49±0.04 Hz
- twitch force ([1]; control 9.7±0.7): 14.1±1.6 nN/cell and ~14.1 nN/cell
- passive tension ([1]; control 82.68±4.35): 114.77±7.93 nN/cell
- cellular size on microposts ([1]; control 213±5): 260±11 μm^2
- average twitch force per post ([1]; controls ~1.2): ~1.4 nN/post
